The results in this text go back to US20060094719A1, “Tetralin histamine-3 receptor antagonists” (Pfizer Inc, priority 2004, published 2006).

The target of data set [1] is T1, rat histamine H3 receptors (Rattus norvegicus, UniProt Q9QYN8).
T1 construct: Frozen rat frontal brain or frozen human post-mortem frontal brain is homogenized; from tissue; host or cells: rat frontal brain membranes
Description: Rat H3 binding, 3H-N-methylhistamine displacement in frontal brain membranes. Particulars: radioligand 1 nM 3H-N-methylhistamine, 1-hour incubation. The protocol: The in vitro affinity of the compounds in the present invention at the rat or human histamine H3 receptors can be determined according to the following procedure. Frozen rat frontal brain or frozen human post-mortem frontal brain is homogenized in 20 volumes of cold 50 mM Tris.HCl containing 2 mM MgCl2 (pH to 7.4 at 4° C.). The homogenate is then centrifuged at 45,000 G for 10 minutes. The supernatant is decanted and the membrane pellet re-suspended by Polytron in cold 50 mM Tris.HCl containing 2 mM MgCl2 (pH to 7.4 at 4 degrees C.) and centrifuged again. The final pellet is re-suspended in 50 mM Tris HCl containing 2 mM MgCl2 (pH to 7.4 at 25 degrees C.) at a concentration of 12 mg/mL. Dilutions of compounds are made in 10% DMSO/50 mM Tris buffer (pH 7.4) (at 10×final concentration, so that the final DMSO concentration is 1%). Incubations are initiated by the addition of membranes (200 microliters) to 96-well V-bottom polypropylene plates containing 25 microliters of drug dilutions and 25 microliters of radioligand (1 nM final concentration ^3H-N-methylhistamine). After a 1-hour incubation, assay samples are rapidly filtered through Whatman GF/B filters and rinsed with ice-cold 50 mM Tris buffer (pH 7.4) using a Skatron cell harvester. Radioactivity is quantified using a BetaPlate scintillation counter.

T1 sequence (Q9QYN8 whole entry): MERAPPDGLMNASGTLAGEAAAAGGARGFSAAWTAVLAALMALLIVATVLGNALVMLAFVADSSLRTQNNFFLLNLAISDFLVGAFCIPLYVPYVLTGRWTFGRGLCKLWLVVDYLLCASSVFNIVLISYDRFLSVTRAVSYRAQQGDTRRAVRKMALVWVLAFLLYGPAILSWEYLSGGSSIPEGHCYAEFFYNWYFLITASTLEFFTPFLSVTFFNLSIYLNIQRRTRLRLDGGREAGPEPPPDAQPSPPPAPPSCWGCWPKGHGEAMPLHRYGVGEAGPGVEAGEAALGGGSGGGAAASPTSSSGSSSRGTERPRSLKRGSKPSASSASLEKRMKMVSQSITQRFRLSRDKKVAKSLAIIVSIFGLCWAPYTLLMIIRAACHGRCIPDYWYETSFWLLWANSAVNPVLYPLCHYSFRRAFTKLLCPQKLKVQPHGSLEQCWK

`Cl.Cl.c1cc2c(cc1OCCN1CCCCC1)CCC(CN1CCCC1)C2` (single isomer, unassigned; (-)) [92 (−), (−)-1-[2-(6-Pyrrolidin-1-ylmethyl-5,6,7,8-tetrahydro-naphthalen-2-yloxy)-ethyl]-piperidine dihydrochloride]: the melting point – broadly, the temperature of the solid-liquid transition – was 265.5 to 266.8 °C. The Ki (in general, the dissociation constant of the complex between target and ligand, obtained from inhibition or displacement) in data set [1] stood at 11.3 nM.
